Laboratory results published in EP3638670B1, “SUBSTITUTED PYRROLOPYRIDINE-DERIVATIVES AS MAP4K1 MODULATORS FOR THE TREATMENT OF CANCER DISEASES” (Bayer Pharma Aktiengesellschaft, priority 2017, dated 2018).

Legend:
[1] = target: T1, MAP4K1 (Homo sapiens, UniProt Q92918); experiment: TR-FRET-based binding competition assay (Tracer 222, GST-fusion protein); conditions: inhibition of binding of Tracer 222 (15 nM) to GST-fusion protein (1 nM), 30 min at 22°C
T1 construct: A recombinant fusion protein of N-terminal GST and full-length human; made in house; host or cells: baculovirus-infected SF9 insect cells
T1 sequence (Q92918 whole entry, the tested form may be a part): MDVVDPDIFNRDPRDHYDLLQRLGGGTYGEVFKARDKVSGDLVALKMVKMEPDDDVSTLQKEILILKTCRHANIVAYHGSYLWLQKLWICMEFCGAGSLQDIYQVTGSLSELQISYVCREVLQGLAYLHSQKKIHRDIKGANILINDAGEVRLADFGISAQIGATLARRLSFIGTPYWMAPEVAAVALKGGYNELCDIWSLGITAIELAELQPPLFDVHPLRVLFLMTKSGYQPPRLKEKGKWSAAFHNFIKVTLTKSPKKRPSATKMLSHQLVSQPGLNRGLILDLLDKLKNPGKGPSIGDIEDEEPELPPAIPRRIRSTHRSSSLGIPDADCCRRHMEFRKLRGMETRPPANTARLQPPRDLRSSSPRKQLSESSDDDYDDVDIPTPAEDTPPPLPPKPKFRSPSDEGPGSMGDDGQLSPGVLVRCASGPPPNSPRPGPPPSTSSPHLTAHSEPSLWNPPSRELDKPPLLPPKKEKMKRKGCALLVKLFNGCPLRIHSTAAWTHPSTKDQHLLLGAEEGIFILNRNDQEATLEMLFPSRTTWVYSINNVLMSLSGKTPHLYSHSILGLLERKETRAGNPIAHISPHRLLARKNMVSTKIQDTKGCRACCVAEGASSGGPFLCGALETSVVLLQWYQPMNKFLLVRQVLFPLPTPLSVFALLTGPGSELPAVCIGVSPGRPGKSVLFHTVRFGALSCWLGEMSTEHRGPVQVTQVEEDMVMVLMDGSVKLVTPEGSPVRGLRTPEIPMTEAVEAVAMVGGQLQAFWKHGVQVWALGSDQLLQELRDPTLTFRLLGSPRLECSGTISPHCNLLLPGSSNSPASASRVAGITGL
From the text: The ability of the compounds of the present invention to inhibit the binding of an Alexa647-labelled ATP-competitive kinase inhibitor to a Glutathione-S-transferase- (GST-) fusion protein was quantified employing the TR-FRET-based binding competition assay as described in the following paragraphs.
A recombinant fusion protein of N-terminal GST and full-length human , expressed by baculovirus infected SF9 insect cells and purified by Glutathione Sepharose affinity chromatography, was used as GST- fusion protein. Tracer 222 from Invitrogen (catalogue no. PR9198A) was used as Alexa647-labelled ATP-competitive kinase inhibitor. For the assay 50 nl of a 100fold concentrated solution of the test compound in DMSO was pipetted into either a black low volume 384well microtiter plate or a black 1536well microtiter plate (both Greiner Bio-One, Frickenhausen, Germany), 3 µl solution of Tracer 222 (25 nM => final concentration in 5 µl assay volume is 15 nM) in aqueous assay buffer [25 mM Tris/HCI pH 7.5, 10 mM MgCl2, 5 mM β-glycerolphosphate, 2.5 mM dithiothreitol, 0.5 mM ethylene glycol-bis(2-aminoethylether)-N,N,N',N'-tetraacetic acid [EGTA], 0.5 mM sodium orthovanadate, 0.01 % (w/v) bovine serum albumin [BSA], 0.005% (w/v) Pluronic F-127 (Sigma)] were added. Then the binding competition was started by the addition of 2 µl of a solution of the GST- fusion protein (2.5 nM => final conc. in the 5 µl assay volume is 1 nM) and of Anti-GST-Tb (1.25 nM => final conc. in the 5 µl assay volume is 0.5 nM), a Lumi4®-Tb Cryptate-conjugated anti-GST-antibody from Cisbio Bioassays (France), in assay buffer.
The resulting mixture was incubated 30 min at 22°C to allow the formation of a complex between the Tracer 222, the fusion protein and Anti-GST-Tb. Subsequently the amount of this complex was evaluated by measurement of the resonance energy transfer from the Tb-cryptate to the Tracer 222. Therefore, the fluorescence emissions at 620 nm and 665 nm after excitation at 350 nm were measured in a TR-FRET reader, e.g. a Pherastar (BMG Labtechnologies, Offenburg, Germany) or a Viewlux (Perkin-Elmer). The ratio of the emissions at 665 nm and at 622 nm was taken as the measure for the amount of the complex. The data were normalised (assay reaction without inhibitor = 0 % inhibition, all other assay components but GST- fusion protein = 100 % inhibition). […] Table 1: Measured IC50 values of compounds regarding inhibition

[2] = tested on: pSer376-SLP-76; experiment: Phosphorylation assay in human cell line (pSer376-SLP-76, capillary electrophoresis); assay type: cell-based; conditions: 0.5 h, Jurkat E6.1 cells overexpressing FLAG-tagged SLP-76, a-CD3 (OKT3) stimulation, 30 min at 37 °C; for activity at 10 µM: 10µM compound, read-out: % amount of pSer376-SLP-76 @ 10µM; for activity at 20 µM: 20µM compound, read-out: % amount of pSer376-SLP-76 @ 20µM
Method: Phosphorylation assays were carried out in Jurkat E6.1 cells from American Type Culture Collection (ATCC) stably overexpressing human FLAG-tagged SLP-76 (proprietary). Cultured cells were kept in RPMI 1640 medium supplemented with 1% FCS at a cell density of 2x 10e6/mL 24h prior compound testing. Starved cells were simultaneously treated with 350 ng/mL a-CD3 antibody (clone OKT3. ebioscience #16-0037-85. plate-bound) and test compound for 30 min at 37 °C. Applied compounds were tested at either fixed concentration of 10 µmol/L and 20 µmol/L or in a 8 point dose response titration of increase compound concentration with 10 nmol/L. 50 nmol/L. 100 nmol/L. 500 nmol/L. 1 µmol/L. 5 µmol/L. 10 µmol/L and 20 µmol/L in triplicates. The cells were washed once in phosphate-buffered saline (pH 7.4). Cells were lysed using a lysis buffer containing 50 mmol/L Tris-CI (pH 7.5). 150 mM NaCl. 2 mM EDTA. 1% Triton-X 100. 0.5 % Na-DOC. 0.1% SDS. 1/10 complete mini protease inhibitor cocktail (Roche #11836170001) and 1/10 PhosSTOP phosphatase inhibitor cocktail (Roche #04906837001). A total of 1.25 µg cell lysate was analyzed by capillary electrophoresis using the Peggy Sue™ System (proteinsimple® San Jose. CA USA) with a 12-230kDa sizebased master kit with split buffer / a-rabbit-HRP #PS-MK18 / a-mouse-HRP #PS-MK19 according to manufacture's protocol. Probe antibodies used were a rabbit monoclonal antibody supernatant raised against human phospho-Ser376-SLP-76 peptide (proprietary) and for mormalization an a-alpha-Tubulin. mouse monoclonal antibody (Sigma #T9026). As control for maximal effect (max control. which represent the maximally possible inhibition of pSer376-SLP-76 by a test compound) cells with no a-CD3 (clone OKT3. ebioscience #16-0037-85. plate-bound) and no test compound treatment were used. Cells with a-CD3 treatment only were used as negative control (min control. which represent the minimally possible inhibition of pSer376-SLP-76 by a test compound)
AUC values of each respective test sample were normalized using the AUC of housekeeping gene alpha-Tubulin and AUC of pSer376-SLP-76 of the min control. The percentage of the amount of pSer-SLP-76 in the treatment samples was calculated using the max control and min control values of the respective Peggy Sue™ run. Table 3: Measured % amount of pSer376-SLP-76 of compound

| SMILES | IC50 [1] | activity at 10 µM [2] | activity at 20 µM [2] |
| --- | --- | --- | --- |
| O=C(NCCN1CCOCC1)Nc1ccc(Oc2ccnc3[nH]cc(C(F)(F)F)c23)c(C(F)(F)F)c1 [Example 1, 1-[2-(morpholin-4-yl)ethyl]-3-[3-(trifluoromethyl)-4-{[3-(trifluoromethyl)-1H-pyrrolo[2,3-b]pyridin-4-yl]oxy}phenyl]urea] | 0.0694 µM | 25.2% | 5.5% |
| O=C(NCCCN1CCOCC1)Nc1ccc(Oc2ccnc3[nH]cc(C(F)(F)F)c23)c(C(F)(F)F)c1 [Example 2, 1-[3-(morpholin-4-yl)propyl]-3-[3-(trifluoromethyl)-4-{[3-(trifluoromethyl)-1H-pyrrolo[2,3-b]pyridin-4-yl]oxy}phenyl]urea] | 0.0562 µM | 25.1% | 6.5% |
| NC(=O)Nc1ccc(Oc2ccnc3[nH]cc(C(F)(F)F)c23)c(C(F)(F)F)c1 [Example 3, 1-[3-(trifluoromethyl)-4-{[3-(trifluoromethyl)-1H-pyrrolo[2,3-b]pyridin-4-yl]oxy}phenyl]urea] | 0.0562 µM | 21% | 2.6% |
| O=C(NCCCN1CCOCC1)Nc1cc(F)c(Oc2ccnc3[nH]cc(C(F)(F)F)c23)c(C(F)(F)F)c1 [Example 4, 1-[3-fluoro-5-(trifluoromethyl)-4-{[3-(trifluoromethyl)-1H-pyrrolo[2,3-b]pyridin-4-yl]oxy}phenyl]-3-[3-(morpholin-4-yl)propyl]urea] | 0.065 µM | 17% | < 1% |
| O=C(NCCN1CCOCC1)Nc1cc(F)c(Oc2ccnc3[nH]cc(C(F)(F)F)c23)c(C(F)(F)F)c1 [Example 5, 1-[3-fluoro-5-(trifluoromethyl)-4-{[3-(trifluoromethyl)-1H-pyrrolo[2,3-b]pyridin-4-yl]oxy}phenyl]-3-[2-(morpholin-4-yl)ethyl]urea] | 0.0646 µM | 27.1% | < 1% |
| O=C(NCCCN1CCOCC1)Nc1ccc(Oc2ccnc3[nH]cc(Cl)c23)c(C(F)(F)F)c1 [Example 6, 1-{4-[(3-chloro-1H-pyrrolo[2,3-b]pyridin-4-yl)oxy]-3-(trifluoromethyl)phenyl}-3-[3-(morpholin-4-yl)propyl]urea] | 0.158 µM | 69.9% | 29.5% |
| O=C(NCCN1CCOCC1)Nc1ccc(Oc2ccnc3[nH]cc(Cl)c23)c(C(F)(F)F)c1 [Example 7, 1-{4-[(3-chloro-1H-pyrrolo[2,3-b]pyridin-4-yl)oxy]-3-(trifluoromethyl)phenyl}-3-[2-(morpholin-4-yl)ethyl]urea] | 0.124 µM | 5.1% | < 1% |
| NC(=O)Nc1ccc(Oc2ccnc3[nH]cc(Cl)c23)c(C(F)(F)F)c1 [Example 8, 1-{4-[(3-chloro-1H-pyrrolo[2,3-b]pyridin-4-yl)oxy]-3-(trifluoromethyl)phenyl}urea] | 0.188 µM | 92.7% | 73.6% |
| O=C(Nc1ccc(Oc2ccnc3[nH]cc(Cl)c23)c(C(F)(F)F)c1)Nc1cccnn1 [Example 9, 1-{4-[(3-chloro-1H-pyrrolo[2,3-b]pyridin-4-yl)oxy]-3-(trifluoromethyl)phenyl}-3-pyridazin-3-ylurea] | 1.26 µM |  |  |
| Cc1ncc(NC(=O)Nc2ccc(Oc3ccnc4[nH]cc(Cl)c34)c(C(F)(F)F)c2)cn1 [Example 10, 1-{4-[(3-chloro-1H-pyrrolo[2,3-b]pyridin-4-yl)oxy]-3-(trifluoromethyl)phenyl}-3-(2-methylpyrimidin-5-yl)urea] | 0.171 µM | 15.9% | < 1% |
| COc1cc(NC(=O)NCCCN2CCOCC2)ccc1Oc1ccnc2[nH]cc(C(F)(F)F)c12 [Example 11, 1-(3-methoxy-4-{[3-(trifluoromethyl)-1H-pyrrolo[2,3-b]pyridin-4-yl]oxy}phenyl)-3-[3-(morpholin-4-yl)propyl]urea] | 0.315 µM | 68.1% | 53.8% |
| O=C(NCCCN1CCOCC1)Nc1ccc(Oc2ccnc3[nH]cc(C(F)(F)F)c23)c(OC(F)(F)F)c1 [Example 12, 1-[3-(morpholin-4-yl)propyl]-3-[3-(trifluoromethoxy)-4-{[3-(trifluoromethyl)-1H-pyrrolo[2,3-b]pyridin-4-yl]oxy}phenyl]urea] | 0.469 µM | 61.8% | 23.9% |
| O=C(NCCN1CCOCC1)Nc1ccc(Oc2ccnc3[nH]cc(C(F)(F)F)c23)c(OC(F)(F)F)c1 [Example 13, 1-[2-(morpholin-4-yl)ethyl]-3-[3-(trifluoromethoxy)-4-{[3-(trifluoromethyl)-1H-pyrrolo[2,3-b]pyridin-4-yl]oxy}phenyl]urea] | 0.439 µM |  |  |
